From US8530423B2, “Anxiolytic compositions containing αs1-casein-derived peptides” (Universite de Lorraine, priority 2008, dated 2013)
Read-outs that look alike come from different tables or passages of the source. No end group written: not given here.

What was measured:
[1] = literature (ZIOUDROU et al., LOUKAS et al.); cited from earlier work
rat [2] = details: PCT/EP2007/063863; cited from earlier work
[3] = molecular target: angiotensin-I converting enzyme (Homo sapiens, UniProt P12821); details: literature (MARUYAMA et al.); cited from earlier work
Chain of angiotensin-I converting enzyme (P12821 30-1306): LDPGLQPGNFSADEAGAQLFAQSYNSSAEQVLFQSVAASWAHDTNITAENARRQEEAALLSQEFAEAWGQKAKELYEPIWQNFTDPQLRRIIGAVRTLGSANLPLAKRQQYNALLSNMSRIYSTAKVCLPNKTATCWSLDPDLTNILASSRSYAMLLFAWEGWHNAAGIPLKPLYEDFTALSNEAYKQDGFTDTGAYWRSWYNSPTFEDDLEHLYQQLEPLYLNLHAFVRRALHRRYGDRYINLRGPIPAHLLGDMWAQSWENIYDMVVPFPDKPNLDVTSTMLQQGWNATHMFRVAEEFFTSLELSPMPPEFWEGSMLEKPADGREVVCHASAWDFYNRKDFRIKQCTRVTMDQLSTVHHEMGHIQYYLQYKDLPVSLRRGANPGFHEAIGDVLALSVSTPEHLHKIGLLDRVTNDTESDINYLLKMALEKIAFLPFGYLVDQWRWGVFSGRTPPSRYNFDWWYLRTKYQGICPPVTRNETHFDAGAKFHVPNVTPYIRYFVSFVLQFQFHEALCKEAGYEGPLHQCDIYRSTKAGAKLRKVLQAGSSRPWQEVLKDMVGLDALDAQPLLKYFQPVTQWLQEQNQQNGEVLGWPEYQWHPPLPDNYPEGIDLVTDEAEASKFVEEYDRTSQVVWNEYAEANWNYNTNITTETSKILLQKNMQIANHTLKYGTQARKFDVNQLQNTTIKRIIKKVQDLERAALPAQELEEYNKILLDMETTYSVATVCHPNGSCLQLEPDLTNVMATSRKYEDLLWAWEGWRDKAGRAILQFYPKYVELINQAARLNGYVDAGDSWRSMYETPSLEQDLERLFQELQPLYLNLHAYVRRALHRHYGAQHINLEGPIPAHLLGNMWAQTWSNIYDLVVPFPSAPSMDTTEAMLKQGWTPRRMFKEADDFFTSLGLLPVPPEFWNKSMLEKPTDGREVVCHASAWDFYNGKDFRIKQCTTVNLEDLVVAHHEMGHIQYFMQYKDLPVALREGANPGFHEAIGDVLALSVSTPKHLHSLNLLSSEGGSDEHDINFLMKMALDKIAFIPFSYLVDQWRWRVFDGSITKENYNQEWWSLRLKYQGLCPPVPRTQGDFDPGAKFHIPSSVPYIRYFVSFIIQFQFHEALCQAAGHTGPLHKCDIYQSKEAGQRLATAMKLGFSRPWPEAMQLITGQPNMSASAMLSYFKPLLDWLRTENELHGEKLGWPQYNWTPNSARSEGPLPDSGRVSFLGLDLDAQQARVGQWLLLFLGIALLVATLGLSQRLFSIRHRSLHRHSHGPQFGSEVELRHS

Wistar rat [4] = assay: Light/dark box test; assay type: in vivo; details: for time spent in the familiar compartment / time spent in the unfamiliar, aversive compartment: p<0.05, n=12
Description: The light/dark tests are based on the innate aversion of rodents for strongly illuminated environments and on their spontaneous exploratory behavior in response to mild stress factors such as a new environment and light. The light/dark box device enables the exploratory behavior of the rodent to be studied with regard to an unfamiliar aversive compartment (strongly illuminated with white light) after habituation in a non-aversive compartment (dark), which then becomes familiar [BOURIN and HASCOET, 2003 (17)]. Classic anxiolytics can be detected by using this device.
The light/dark box measures 65×49×35 cm (h×L×l) and is separated into two identical compartments by a plate with three 8×8-cm doors. The ground is covered with sawdust. Each rat is placed for 24 hours in the rear compartment of the box, and the doors communicating with the front compartment are made inaccessible. The rear compartment thus becomes the familiar compartment. The animal is fed and hydrated ad libitum. On the day of the test, the rat, after treatment, is again placed in the familiar compartment and the doors communicating with the front compartment (unfamiliar) are made accessible so that the animal can freely explore the environment. The unfamiliar compartment is made aversive by illumination with white light having an intensity of 1500 lx. The animals are observed for 10 minutes and the time spent in each of the compartments is measured.
The animals receive their respective treatments intraperitoneally one-half hour before the communication between the familiar compartment and the unfamiliar compartment is opened.

Wistar rat [5] = assay: Elevated cross maze test; assay type: in vivo; details: for number of entries into the open arms / time spent in the open arms: p<0.05
Description: The elevated cross maze test enables the density of the exploratory behavior in a new aversive situation to be measured [PELLOW et al., 1985 (16)]. The experiment exploits the conflict, in rodents, between the fear of open spaces and the desire to explore a new environment. The rat, placed at the center of the device, is forced to explore its environment. The open arms constitute an anxiety-producing environment, while this is not the case for the closed arms. The number of entries into all of the arms, the number of entries into the open arms, the number of entries into the closed arms, the time spent in the open arms, and the latency of entry into the first open arm constitute parameters reflecting the degree of anxiety of the animal.
The elevated cross maze, made of wood, consists of four branches at 90° to one another. The two open branches (45×10 cm) and the two closed branches (45×10 cm, surrounded by wood plates over a height of 40 cm) are arranged opposite one another. The central square measures 10×10 cm. The open branches are illuminated by a white light with an intensity of 500 lx. The elevated cross maze is located 50 cm from the ground.
The observations took place at between 9 and 11 o'clock in the morning in order to minimize the influence of the circadian rhythm. Before each passage through the elevated cross maze, the animal is placed for 10 minutes in an open field in order to stimulate its exploratory behavior. It is then placed in the central square of the elevated cross maze, and observed for 5 minutes. The cross maze is washed with 95% ethanol (v/v) between two passages so as to remove odors.
The animals receive their respective treatment intraperitoneally one-half hour before being placed in the open field.

rat [6] = assay: in vivo behavioral tests in the rat; details: this application
[7] = EP 0714910; cited from earlier work
[8] = vehicle animals compared with animals treated 1 mg/kg intraperitoneally
[9] = vehicle animals compared with animals treated 1 mg/kg intraperitoneally, n=15
[10] = 0.5 mg/kg i.p. versus diazepam 1 mg/kg i.p.
[11] = 0.5 mg/kg intraperitoneally, Wistar rat
[12] = vehicle animals compared with animals treated 0.5 mg/kg intraperitoneally
[13] = vehicle animals compared with animals treated 0.5 mg/kg intraperitoneally, n=15

For “90-95: αs1-casein peptide 90-95 (RYLGYL; UniProt P02662 105-110, looked up, fragment) [reference compound]”, the “in vitro opiate activity” value [1] is given as “demonstrated in vitro opiate activity”.

For “90-96: αs1-casein peptide 90-96 (RYLGYLE; UniProt P02662 105-111, looked up, fragment) [reference compound]”, the “in vitro opiate activity” value [1] is listed as “demonstrated in vitro opiate activity”.

For “91-97: peptide 91-97 derived from decapeptide, not containing arginine 100 (YLGYLEQ; UniProt P02662 106-112, looked up, fragment)”, the anxiolytic properties (rat [2]) is given as “show anxiolytic properties”.

For “91-98: peptide 91-98 derived from decapeptide, not containing arginine 100 (YLGYLEQL; UniProt P02662 106-113, looked up, fragment)”, the anxiolytic properties (rat [2]) is given as “show anxiolytic properties”.

For “91-99: peptide 91-99 derived from decapeptide, not containing arginine 100 (YLGYLEQLL; UniProt P02662 106-114, looked up, fragment)”, the anxiolytic properties (rat [2]) is listed as “show anxiolytic properties”.

For “194-199: αs1-casein peptide 194-199 (TTMPLW; UniProt P02662 209-214, looked up, fragment)”, the “angiotensin-I converting enzyme inhibition” value [3] is given as “angiotensin-I converting enzyme inhibitors”.

In the case of `CN1C(=O)CN=C(c2ccccc2)c2cc(Cl)ccc21` [diazepam, reference compound], the “time spent in the familiar compartment” value (Wistar rat [4]; [8]) is reported as “increases significantly”, the “time spent in the unfamiliar, aversive compartment” value (Wistar rat [4]; [8]) is reported as “significantly lower” and the “number of entries into the open arms” value (Wistar rat [5]; [9]) is reported as “significantly lower”. For the same compound, the “time spent in the open arms” value (Wistar rat [5]; [9]) was “significantly lower”.

In the case of “Tyr-Leu-Gly-Tyr-Leu (YLGYL; listed as Bos taurus) [αs1-casein fragment 91-95, Pentapeptide corresponding to positions 91-95 of αs1-casein]”, the “difference versus diazepam in the light/dark box” value (Wistar rat [4]; [10]) is reported as “No significant difference”, the “action in the light/dark box test” value (Wistar rat [4]; [11]) is reported as “anxiolytic-type action similar to that of diazepam” and the “time spent in the familiar compartment” value (Wistar rat [4]; [12]) is reported as “increases significantly”. For the same compound, the “time spent in the unfamiliar, aversive compartment” value (Wistar rat [4]; [12]) was “significantly lower”, the anxiolytic properties (rat [6]) was “possible to demonstrate the anxiolytic properties” and the “difference versus diazepam in the elevated cross maze” value (Wistar rat [5]; [10]) was “No significant difference”. The “number of entries into all of the arms (exploratory activity)” value (Wistar rat [5]; 0.5 mg/kg intraperitoneally one-half hour before open field, compared between treatments, n=15) was “not significantly different”, the “action in the elevated cross maze test” value (Wistar rat [5]; [11]) was “an action similar to that of diazepam, i.e. an increase in the exploration of anxiety-producing zones” and the “number of entries into the open arms” value (Wistar rat [5]; [13]) was “significantly lower”. The “time spent in the open arms” value (Wistar rat [5]; [13]) was “significantly lower” and the “in vitro opiate activity” value [1] was “practically inactive”.

In the case of “YLGYLE [91-96, Hexapeptide corresponding to positions 91-96 of αs1-casein]”, the anxiolytic properties (rat [6]) is given as “possible to demonstrate the anxiolytic properties” and the “in vitro opiate activity” value [1] is given as “practically inactive”.

In the case of “α-casozepine: αs1-casein fragment 91-100, decapeptide from αs1-casein tryptic hydrolysate (YLGYLEQLLR; UniProt P02662 106-115, looked up, fragment)”, the anxiolytic activity [7] is given as “original anxiolytic activity”.
